target: mTOR/GbL/Raptor (mTORC1) (Homo sapiens, UniProt P42345); test: mTOR/GbL/Raptor (mTORC1) ELISA assay; assay type: biochemical; conditions: 0.2 nM mTORC1, 10 μM ATP, 50 nM 4E-BP1
Procedure: The measurement of mTORC1 enzyme activity was performed in an ELISA assay format following the phosphorylation of 4E-BP1 protein. All experiments were performed in the 384-well format. Generally, 0.5 μL DMSO containing varying concentrations of the test compound was mixed with 15 μL enzyme solution. Kinase reactions were initiated with the addition of 15 μL of substrates-containing solution. The assay conditions were as follows; 0.2 nM mTORC1, 10 μM ATP and 50 nM NHis-tagged 4E-BP1 in 20 mM Hepes, pH 7.2, 1 mM DTT, 50 mM NaCl, 10 mM MnCl2, 0.02 mg/mL BSA, 0.01% CHAPS, 50 mM β-glycerophosphate. Following an incubation of 120 minutes at ambient temperature, 20 μL of the reaction volume was transferred to a Ni-Chelate-coated 384-well plate. The binding step of the 4E-BP1 protein proceeded for 60 minutes, followed by washing 4 times each with 50 μL of Tris-buffered saline solution (TBS). Anti-phospho-4E-BP1 rabbit-IgG (20 μL, 1:5000) in 5% BSA-TBST (0.2% Tween-20 in TBS) was added and further incubated for 60 minutes. Incubation with a secondary HRP-tagged anti-IgG was similarly performed after washing off the primary antibody (4 washes of 50 μL). Following the final wash step with TBST, 20 μL of SuperSignal ELISA Femto (Pierce Biotechnology) was added and the luminescence measured using an EnVision plate reader.

SMILES | IC50 (mTORC1 ELISA)
Cc1nc2ccc(-c3ccc4c(c3)CN(C(=O)N3CC[S+]([O-])CC3)CCO4)cc2[nH]1 [compound 101, 7-(2-methyl-1H-benzimidazol-6-yl)-4-[(1-oxidothiomorpholin-4-yl)carbonyl]-2,3,4,5-tetrahydro-1,4-benzoxazepine] | not active
Cc1nc2ccc(-c3ccc4c(c3)CN(C(=O)N3CC[C@@H](O)C3)CCO4)cc2[nH]1 [compound 78, (3R)-1-{[7-(2-methyl-1H-benzimidazol-6-yl)-2,3-dihydro-1,4-benzoxazepin-4(5H)-yl]carbonyl}pyrrolidin-3-ol] | not active
Cc1nc2ccc(-c3ccc4c(c3)CN(C(=O)N3CCCC3)CCO4)cc2[nH]1 [compound 87, 7-(2-methyl-1H-benzimidazol-6-yl)-4-(pyrrolidin-1-ylcarbonyl)-2,3,4,5-tetrahydro-1,4-benzoxazepine] | not active
CC(=O)c1ccc(N2CCN(C(=O)N3CCOc4ccc(-c5ccc6nc(C)[nH]c6c5)cc4C3)CC2)cc1 [compound 169, 1-[4-(4-{[7-(2-methyl-1H-benzimidazol-6-yl)-2,3-dihydro-1,4-benzoxazepin-4(5H)-yl]carbonyl}piperazin-1-yl)phenyl]ethanone] | not active
Cc1nc2ccc(-c3ccc4c(c3)CN(C(=O)N3CCN(c5ccc([N+](=O)[O-])cc5)CC3)CCO4)cc2[nH]1 [compound 168, 7-(2-methyl-1H-benzimidazol-6-yl)-4-{[4-(4-nitrophenyl)piperazin-1-yl]carbonyl}-2,3,4,5-tetrahydro-1,4-benzoxazepine] | not active

Now from value to molecule:

IC50 (mTORC1 ELISA) | SMILES
not active | Cc1nc2ccc(-c3ccc4c(c3)CN(C(=O)N3CCC(O)(C(F)(F)F)CC3c3ccc(F)c(F)c3)CCO4)cc2[nH]1 (centres unmarked) [compound 119, 2-(3,4-difluorophenyl)-1-{[7-(2-methyl-1H-benzimidazol-6-yl)-2,3-dihydro-1,4-benzoxazepin-4(5H)-yl]carbonyl}-4-(trifluoromethyl)piperidin-4-ol]
not active | Cc1nc2ccc(-c3ccc4c(c3)CN(C(=O)N3CC[C@H](O)C3)CCO4)cc2[nH]1 [compound 82, (3S)-1-{[7-(2-methyl-1H-benzimidazol-6-yl)-2,3-dihydro-1,4-benzoxazepin-4(5H)-yl]carbonyl}pyrrolidin-3-ol]
not active | Cc1nc2ccc(-c3ccc4c(c3)CN(C(=O)N3CCN(C)CC3c3ccccc3)CCO4)cc2[nH]1 (centres unmarked) [compound 144, 7-(2-methyl-1H-benzimidazol-6-yl)-4-[(4-methyl-2-phenylpiperazin-1-yl)carbonyl]-2,3,4,5-tetrahydro-1,4-benzoxazephin]
